Data: patent publication US12023319B2, “Carboxylic acid aromatic amides” (priority 2016, dated 2024)

Legend:
[1] = tested on: male Lewis rats; assay: In vivo adjuvant-induced arthritis (AIA) model; parameters: species or system rat
From the text: 10. In Vivo Adjuvant-Induced Arthritis (AIA) Model
The AIA model is characterized by a rapid onset and progression to polyarticular inflammation. Following the injection of CFA, signs of arthritis usually develop between day 10 and day 14. Typically, the disease is severe and leads to permanent joint malformations, including ankylosis. Joint swelling, lymphocyte infiltration, and cartilage degradation are shared features with human autoimmune arthritis.
To determine the anti-inflammatory activity of the Compound Examples, they were examined for their in vivo efficacy in an arthritis model. For this purpose, male Lewis rats (about 100 to 125 g, Charles River Laboratories, Germany) were each administered 100 μl of a complete Freund's adjuvant (CFA) solution (M. tuberculosis H37Ra [Difo Lab, Cat. No. 231141] dissolved in Incomplete Freund's adjuvant [Difco Lab, Cat. No. 263910]) into the tailhead subcutaneously on day 0. There were n=8 rats in each group. Both, a healthy control group and a disease control group treated with the vehicle only were included in the study. Each control group was given oral (p.o. or PO) treatment only with the vehicle (5% DMSO/95% PBS) of the Compound Examples. The treatment with different dosages of the Compound Examples dissolved in the vehicle was conducted in a preventative manner, i.e. starting from day 0 and continued to day 20, the end of the study, by daily oral administration. On day 0, the starting condition of the animals was determined in terms of the disease activity scores (rating of the severity of arthritis based on a points system). Here, points were awarded according to the extent of joint inflammation from 0 to 4 for the presence of an erythema including joint swelling (0=none; 1=slight; 2=moderate; 3=distinct; 4=severe) for both hind paws and were summed up to a single value. […] In addition, the extent of joint swelling was detected by measuring the ankles of hind paws sagittal×transversal [in mm^2] using an automated caliper (Bayer AG, Germany). Next to this, the grip strength, as a measure for hyperalgesia, using an automated grip strength test meter (IITC Life Science Inc., USA) was evaluated.
Statistical analysis of obtained results for all parameters were done with one way Anova (ANOVA; Analysis of variance) and the comparison to the control group via multiple reference analysis (Dunnett-test).

[2] = tested on: Female Brown Norway rats; assay: Rat model for endometriosis, acute phase (4 day); assay type: in vivo; conditions: rat 4 day endometriosis model, once daily p.o. 1, 5, 15, 60 mg/kg
Description: 4. Rat Model for Endometriosis, Acute Phase Female Brown Norway rats (Charles-River) were treated p.o. with Compound Example 3 (doses: 1 mg/kg, 5 mg/kg, 15 mg/kg, 60 mg/kg) or vehicle alone (10% DMSO+90% phosphate buffered saline (PBS)). 2 h later all animals got under deep anesthesia a transplantation of 6 uterus pieces in the peritoneal cavity. The tissue was obtained from donor animals which were pre-treated with 3 μg s.c. Estradiol (E2) for 2 days to guarantee standardized conditions of the uterus tissue. The animals were treated once daily p.o. with Compound Example 3 (doses: 1 mg/kg, 5 mg/kg, 15 mg/kg, 60 mg/kg) or vehicle alone (10% DMSO+90% phosphate buffered saline (PBS). 4 days later the animals were sacrificed and the transplants as surrogate endometriosis lesion tissue were analyzed for markers of lesion activity (inflammatory cytokines and proliferation marker). This approach is mimicking the early inflammatory phase of endometriosis close to menstruation. Analysis For RNA expression analysis the lesions, were excised. RNA was isolated after homogenization of tissues in guanidinium thiocyanate using the RNeasy mini Kit (Qiagen) with DNase digestion. […] Relative mRNA levels were calculated using the comparative CT method using the RQ-Manager software (Applied Biosystems). […]

O=C(O)c1cc(NC(=O)C2(c3ccc(C(F)(F)F)cc3F)CC2)ccc1-c1cnn(C2CCC2)c1 [Example 3, 2-(1-Cyclobutyl-1H-pyrazol-4-yl)-5-[({1-[2-fluoro-4-(trifluoromethyl)phenyl]cyclopropyl}carbonyl)amino]benzoic acid]
dose-dependency in the adjuvant-induced arthritis (AIA) model ([1]; 60, 15 or 3 mg/kg QD p.o., day 0 to day 20): clear dose-dependency
severity of rat AIA ([1]; oral treatment with 60 mg/kg once daily): significantly inhibited
disease activity score ([1]; rat AIA model, oral once daily, FIG. 14A): reduction
extent of joint swelling ([1]; rat AIA model, oral once daily, FIG. 14B): reduction
grip strength (hyperalgesia) ([1]; rat AIA model, oral once daily, FIG. 15): increase
expression of proliferation marker (PCNA) in lesions ([2]; FIG. 1): decreased
expression of inflammatory cytokines in lesions (TNF alpha, IL-1 beta, IL-6) ([2]; FIG. 2-4): decreased
